The assay deals with α-glucosidase. In words: pNPG hydrolysis assay, absorbance at […] nm. Type of assay: biochemical.

For orientation: IC50 means the concentration that inhibits the measured activity by half. A low value points to greater potency. Consider `C=C(C)[C@@H]1CC=C(C)[C@H](O[C@@H]2O[C@H](CO)[C@@H](O)[C@H](O)[C@H]2O)C1` [compound 3, (4R,6R)-carveol β-D-glucoside], for which 516 µM corresponded to half-maximal inhibition (IC50).
The value for `C=C(C)[C@@H]1CC=C(C)[C@@H](O[C@@H]2O[C@H](CO)[C@@H](O)[C@H](O)[C@H]2O)C1` [compound 4, (4R,6S)-carveol β-D-glucoside] was 919 µM.
The value for `CC1=C(CC[C@H](C)O)C(C)(C)C[C@H](O[C@@H]2O[C@H](CO)[C@@H](O)[C@H](O)[C@H]2O)C1` [compound 11, (3R,9S)-megastigman-5-en-3,9-diol 3-O-β-D-glucopyranoside] was 83.4 µM.

For the origin of these results see publication PMC6538733, “Chemical Constituents from Mentha haplocalyx Briq. (Mentha canadensis L.) and Their α-Glucosidase Inhibitory Activities” (Natural Products and Bioprospecting, 2019).
